Laboratory results as given in patent US3935229A, “Esters of 2-[(4-quinolyl)amino]-benzoic acids” (Synthelabo, priority 1973, dated 1976).

Tests used:
[1] = system: carragenine-induced oedema of the paw, Sherman rats; assay: Carragenine-induced oedema test (oedema of the paw); format: in vivo; settings: Rattus norvegicus; rats, oral administration; read-out: Carragenine-induced oedema test AD (AD40 = 40% active dose)
[2] = system: pain induced, in Swiss mice, by the intraperitoneal injection of phenylquinone; assay: Siegmund test (analgesic effect against pain induced by intraperitoneal phenylquinone); format: in vivo; settings: mice; for ED50: Mus musculus, read-out: Siegmund test AD50 (50% active dose); for analgesic effects of the peripheral type (Siegmund test), compared with amidopyrine and glafenine: oral, versus amidopyrine and glafenine
Excerpt: 1. Effect against pain induced, in Swiss mice, by the intraperitoneal injection of phenylquinone, in accordance with the experimental procedure of Siegmund (Proc. Soc. Exp. Biol. Med., 1957, 95, 729), modified by Cheymol (C.R. Soc. Biol., 1963, 157, 521) and Brittain (Nature, London, 1963, […], 895).

in vivo = settings: mouse, in vivo, po
Procedure: (§1) Tests were carried out on mice of both sexes, of the Swiss strain, of average weight 20 g. (± 2g.).

[3] = system: mice of both sexes, of the Swiss strain; assay: in vivo; settings: mice, oral administration
Procedure: as §1

[4] = system: heated plate test, Swiss mice; assay: Heated plate test (plate heated by acetone vapours; analgesic effects of the central type); settings: oral, versus amidopyrine

Structure (SMILES)	ED40 [1]	ED50 ([2]; oral administration)	LD50 (in vivo; Acute toxicity LD50 (50% lethal dose), mice, oral administration)	LD50 (in vivo)	analgesic effects of the peripheral type (Siegmund test), compared with amidopyrine and glafenine [2]	Acute toxicity LD50 (50% lethal dose) [3]	analgesic effects of the central type (heated plate test), compared with amidopyrine [4]	extent of the greater activity than amidopyrine in the heated plate test [4]	Siegmund test AD50 (50% active dose) ([2]; oral administration)
Cc1c(N(C)C)c(=O)n(-c2ccccc2)n1C [Amidopyrine, reference compound]	80 mg/kg	50 mg/kg	850 mg/kg	–	–	–	–	–	–
O=C(OCCN1CCN(c2ccc(Cl)cc2)CC1)c1ccccc1Nc1ccnc2cc(Cl)ccc12 [Compound 72-165, 2-(4'-p-Chlorophenyl-piperazino)-ethyl 2-(7'-chloro-4' quinolyl-amino)-benzoate]	–	50 mg/kg	–	> 2000 mg/kg	–	–	–	–	–
O=C(OCCN1CCN(c2ccccc2)CC1)c1ccccc1Nc1ccnc2cc(C(F)(F)F)ccc12 [Compound 72-242, 2-(4'-Phenyl-piperazino)-ethyl 2-(7'-trifluoro-methyl-4'quinolyl-amino)-benzoate]	40 mg/kg	25 mg/kg	–	> 3000 mg/kg	generally much more active	–	–	–	–
O=C(OCCN1CCN(c2ccccc2)CC1)c1ccccc1Nc1ccnc2cc(SC(F)(F)F)ccc12 [Compound 72-244, 2-(4'-Phenyl-piperazino)-ethyl 2-(7'-trifluoromethylthio-4'-quinolyl-amino)-benzoate]	–	10 mg/kg	–	–	generally much more active	1,200 mg/kg	–	–	–
Cc1cccc(N2CCN(CCOC(=O)c3ccccc3Nc3ccnc4cc(Cl)ccc34)CC2)c1C [Compound 72-248, 2-[4'-(2",3"-Dimethyl-phenyl)-piperazino]-ethyl 2-(7'-chloro-4'-quinolyl-amino)-benzoate]	120 mg/kg	20 mg/kg	–	1900 mg/kg	generally much more active	–	–	–	–
O=C(OCCN1CCN(c2cccc(C(F)(F)F)c2)CC1)c1ccccc1Nc1ccnc2cc(Cl)ccc12 [Compound 72-391, 2-(4'-m-Trifluoromethylphenyl-piperazino)-ethyl 2-(7'-chloro-4'-quinolyl-amino)-benzoate]	40 mg/kg	20 mg/kg	–	–	generally much more active	2,500 mg/kg	greater than that of amidopyrine	–	–
O=C(OCCN1CCN(c2cccc(Cl)c2)CC1)c1ccccc1Nc1ccnc2cc(Cl)ccc12 [Compound 73-018, 2-(4'-m-Chlorophenyl-piperazino)-ethyl 2-(7'-chloro-4'-quinolyl-amino)-benzoate]	120 mg/kg	6 mg/kg	–	4000 mg/kg	generally much more active	–	greater than that of amidopyrine	considerable	–
O=C(OCCN1CCN(c2cccc(OC(F)(F)F)c2)CC1)c1ccccc1Nc1ccnc2cc(Cl)ccc12 [Compound 73-030, 2-(4'-m-Trifluoromethoxyphenyl-piperazino)-ethyl 2-(7'-chloro-4'-quinolyl-amino)-benzoate]	50 mg/kg	100 mg/kg	–	> 4000 mg/kg	–	–	–	–	–
O=C(OCCN1CCN(c2cccc(SC(F)(F)F)c2)CC1)c1ccccc1Nc1ccnc2cc(Cl)ccc12 [Compound 73-031, 2-(4'-m-Trifluoromethylthiophenyl-piperazino)-ethyl 2-(7'-chloro-4'-quinolyl-amino)-benzoate]	30 mg/kg	100 mg/kg	–	3000 mg/kg	–	–	–	–	–
O=C(OCCN1CCN(c2cccc(C(F)(F)F)c2)CC1)c1ccccc1Nc1ccnc2cc(C(F)(F)F)ccc12 [Compound 73-033, 2-(4'-m-Trifluoromethylphenyl-piperazino)-ethyl 2-(7'-trifluoromethyl-4'-quinolyl-amino)-benzoate]	–	–	–	–	–	4,000 mg/kg	–	–	5 mg/kg
O=C(OCCN1CCN(c2cccc(Cl)c2)CC1)c1ccccc1Nc1ccnc2cc(C(F)(F)F)ccc12 [Compound 73-045, 2-(4'-m-Chlorophenyl-piperazino)-ethyl 2-(7'-trifluromethyl-4'-quinolyl-amino)-benzoate]	30 mg/kg	8 mg/kg	–	> 4000 mg/kg	generally much more active	–	greater than that of amidopyrine	–	–
Cc1c(Cl)cccc1N1CCN(CCOC(=O)c2ccccc2Nc2ccnc3cc(Cl)ccc23)CC1 [Compound 73-046, 2-[4'-(3"-Chloro-2"-methyl-phenyl)-piperazino]-ethyl 2-(7'-chloro-4'-quinolyl-amino)-benzoate]	30 mg/kg	13 mg/kg	–	> 2000 mg/kg	generally much more active	–	–	–	–
Cc1c(Cl)cccc1N1CCN(CCOC(=O)c2ccccc2Nc2ccnc3cc(C(F)(F)F)ccc23)CC1 [Compound 73-047, 2-[4'-(3"-Chloro-2"-methyl-phenyl)-piperazino]-ethyl 2-(7'-trifluoromethyl-4'-quinolyl-amino)-benzoate]	65 mg/kg	16 mg/kg	–	3000 mg/kg	generally much more active	–	–	–	–
O=C(OCCN1CCN(c2cccc(SC(F)(F)F)c2)CC1)c1ccccc1Nc1ccnc2cc(C(F)(F)F)ccc12 [Compound 73-048, 2-(4'-m-Trifluoromethylthiophenyl-piperazino)-ethyl 2-(7'-trifluoromethyl-4'-quinolyl-amino)-benzoate]	30 mg/kg	6 mg/kg	–	4000 mg/kg	generally much more active	–	–	–	–
O=C(OCCN1CCN(c2cccc(OC(F)(F)F)c2)CC1)c1ccccc1Nc1ccnc2cc(C(F)(F)F)ccc12 [Compound 73-051, 2-(4'-m-trifluoromethoxyphenyl-piperazino)-ethyl 2-(7'-trifluoromethyl-4'-quinolyl-amino)-benzoate]	50 mg/kg	16 mg/kg	–	> 4000 mg/kg	generally much more active	–	–	–	–
O=C(OCCN1CCN(c2cccc(SC(F)(F)F)c2)CC1)c1ccccc1Nc1ccnc2cc(SC(F)(F)F)ccc12 [Compound 73-069, 2-(4'-m-Trifluoromethylthiophenyl-piperazino)-ethyl 2-(7'-trifluoromethylthio-4'-quinolyl-amino)-benzoate]	55 mg/kg	50 mg/kg	–	–	–	2,200 mg/kg	–	–	–
O=C(OCCN1CCN(c2cc(C(F)(F)F)cc(C(F)(F)F)c2)CC1)c1ccccc1Nc1ccnc2cc(C(F)(F)F)ccc12 [Compound 73-070, 2-[4'-(3",5"-Di-trifluoromethyl-phenyl)-piperazino]-ethyl 2-(7'-trifluoromethyl-4'-quinolyl-amino)-benzoate]	> 80 mg/kg	16 mg/kg	–	> 4000 mg/kg	–	–	–	–	–
CCCCC1C(=O)N(c2ccccc2)N(c2ccccc2)C1=O [Phenylbutazone, reference compound]	30 mg/kg	90 mg/kg	–	–	–	–	–	–	–
O=C(OCCN1CCN(c2cccc(C(F)(F)F)c2)CC1)c1ccccc1Nc1ccnc2c(C(F)(F)F)cccc12 [SLB 179, 2-(4'-m-Trifluoromethylphenyl-piperazino)-ethyl 2-(8'-trifluoromethyl-4'-quinolyl-amino)-benzoate]	120 mg/kg	25 mg/kg	–	> 3000 mg/kg	generally much more active	–	greater than that of amidopyrine	–	–
O=C(OCCN1CCN(c2cccc(Cl)c2)CC1)c1ccccc1Nc1ccnc2c(C(F)(F)F)cccc12 [SLB 180, 2-(4'-m-Chlorophenyl-piperazino)-ethyl 2-(8'-trifluoromethyl-4'-quinolyl-amino)-benzoate]	> 100 mg/kg	12 mg/kg	–	> 3000 mg/kg	generally much more active	–	–	–	–
O=C(OCCN1CCN(c2ccccc2)CC1)c1ccccc1Nc1ccnc2c(C(F)(F)F)cccc12 [SLB 181, 2-(4'-Phenyl-piperazino)-ethyl 2-(8'-trifluoromethyl-4'-quinolyl-amino)-benzoate]	45 mg/kg	12 mg/kg	–	2000 mg/kg	generally much more active	–	–	–	–
O=C(OCCN1CCN(c2cccc(SC(F)(F)F)c2)CC1)c1ccccc1Nc1ccnc2c(C(F)(F)F)cccc12 [SLB 182, 2-(4'-m-Trifluoromethylthiophenyl-piperazino)-ethyl 2-(8'-trifluoromethyl-4'-quinolyl-amino)-benzoate]	150 mg/kg	5 mg/kg	–	> 3000 mg/kg	generally much more active	–	–	–	–
